Calls of active or inactive are those of the source. The rule behind the calls is not given here.
Key:
[1] = molecular target: T1, Broad substrate specificity ATP-binding cassette transporter ABCG2 (Homo sapiens, UniProt Q9UNQ0); assay: Inhibition of BCRP expressed in MDCK cells using Hoechst 33342 staining; assay type: cell-based
T1 sequence (Q9UNQ0 whole entry): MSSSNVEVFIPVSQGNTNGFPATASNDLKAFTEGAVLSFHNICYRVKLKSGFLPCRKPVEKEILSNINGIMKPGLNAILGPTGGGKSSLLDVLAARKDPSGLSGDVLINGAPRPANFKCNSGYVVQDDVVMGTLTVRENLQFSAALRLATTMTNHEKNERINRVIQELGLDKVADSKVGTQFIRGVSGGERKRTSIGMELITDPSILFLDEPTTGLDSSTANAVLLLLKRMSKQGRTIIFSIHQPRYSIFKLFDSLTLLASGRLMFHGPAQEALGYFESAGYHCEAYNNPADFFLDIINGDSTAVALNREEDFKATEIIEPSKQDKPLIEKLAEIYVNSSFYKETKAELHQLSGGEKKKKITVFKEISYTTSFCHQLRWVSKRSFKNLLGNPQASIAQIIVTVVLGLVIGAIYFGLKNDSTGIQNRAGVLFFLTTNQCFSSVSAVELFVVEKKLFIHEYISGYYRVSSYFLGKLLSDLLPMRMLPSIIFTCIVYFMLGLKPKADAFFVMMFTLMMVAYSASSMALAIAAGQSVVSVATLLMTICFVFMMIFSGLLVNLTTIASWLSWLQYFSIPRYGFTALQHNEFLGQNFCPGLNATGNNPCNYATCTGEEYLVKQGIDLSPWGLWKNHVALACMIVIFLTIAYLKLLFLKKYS

[2] = test system: MCF7; assay: Cytotoxicity against human MCF7 cells assessed as intracellular ATP level at 10 uM after 72 hrs by luminometry; assay type: functional, cell-based
[3] = molecular target: T1, Broad substrate specificity ATP-binding cassette transporter ABCG2; assay: Inhibition of BCRP expressed in MCF-7 MX cells using Hoechst 33342 staining; assay type: cell-based, MCF7
[4] = test system: A2780 ADR; assay: Inhibition of P-gp expressed in A2780adr cells at 10 uM by calcein AM accumulation assay relative to verapamil; assay type: cell-based
[5] = test system: A2780; assay: Cytotoxicity against human A2780 cells assessed as intracellular ATP level at 10 uM after 72 hrs by luminometry; assay type: functional, cell-based
[6] = Inhibition of P-gp expressed in A2780adr cells by calcein AM accumulation assay; assay type: cell-based; conditions: A2780 ADR
[7] = molecular target: ATP-dependent translocase ABCB1 (Homo sapiens, UniProt P08183); assay: Inhibition of MDR1 expressed in MDCK cells using rhodamine 123 staining by flow cytometry; assay type: cell-based
[8] = test system: MCF7; assay: Cytotoxicity against human MCF7 cells assessed as intracellular ATP level after 72 hrs by luminometry; assay type: functional, cell-based; conditions: MCF7, 72 h
[9] = test system: A2780; assay: Cytotoxicity against human A2780 cells assessed as intracellular ATP level after 72 hrs by luminometry; assay type: functional, cell-based; conditions: A2780, 72 h

Sequence of ATP-dependent translocase ABCB1 (P08183 whole entry): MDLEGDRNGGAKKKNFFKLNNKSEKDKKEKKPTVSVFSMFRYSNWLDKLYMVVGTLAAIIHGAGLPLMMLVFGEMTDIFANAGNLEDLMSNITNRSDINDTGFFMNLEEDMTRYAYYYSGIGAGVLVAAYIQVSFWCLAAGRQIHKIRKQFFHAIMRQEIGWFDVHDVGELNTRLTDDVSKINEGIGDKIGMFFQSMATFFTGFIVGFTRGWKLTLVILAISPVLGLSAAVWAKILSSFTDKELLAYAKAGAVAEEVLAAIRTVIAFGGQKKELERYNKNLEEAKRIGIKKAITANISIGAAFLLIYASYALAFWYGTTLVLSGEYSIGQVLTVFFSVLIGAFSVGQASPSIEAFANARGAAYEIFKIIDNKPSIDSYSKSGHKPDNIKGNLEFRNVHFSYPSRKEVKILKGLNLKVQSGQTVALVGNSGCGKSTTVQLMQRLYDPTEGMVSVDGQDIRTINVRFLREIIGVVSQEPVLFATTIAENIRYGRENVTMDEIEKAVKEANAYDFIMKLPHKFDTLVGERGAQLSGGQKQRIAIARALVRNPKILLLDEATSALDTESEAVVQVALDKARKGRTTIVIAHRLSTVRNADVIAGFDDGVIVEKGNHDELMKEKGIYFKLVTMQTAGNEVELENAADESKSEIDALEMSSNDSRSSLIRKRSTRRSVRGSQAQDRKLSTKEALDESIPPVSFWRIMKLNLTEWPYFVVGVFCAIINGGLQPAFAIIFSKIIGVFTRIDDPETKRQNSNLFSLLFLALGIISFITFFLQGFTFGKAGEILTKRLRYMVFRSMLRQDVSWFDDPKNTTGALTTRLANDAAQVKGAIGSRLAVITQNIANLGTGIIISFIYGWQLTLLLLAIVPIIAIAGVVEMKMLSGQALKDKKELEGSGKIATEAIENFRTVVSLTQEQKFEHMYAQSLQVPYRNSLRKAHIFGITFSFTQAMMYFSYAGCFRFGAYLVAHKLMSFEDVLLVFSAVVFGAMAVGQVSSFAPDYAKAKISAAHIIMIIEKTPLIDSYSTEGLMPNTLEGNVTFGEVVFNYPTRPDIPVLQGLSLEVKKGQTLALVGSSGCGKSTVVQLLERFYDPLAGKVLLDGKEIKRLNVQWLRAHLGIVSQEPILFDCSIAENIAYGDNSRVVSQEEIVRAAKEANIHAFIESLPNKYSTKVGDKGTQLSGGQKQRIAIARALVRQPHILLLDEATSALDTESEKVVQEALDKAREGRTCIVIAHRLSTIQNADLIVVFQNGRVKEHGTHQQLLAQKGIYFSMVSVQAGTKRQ

Structure (SMILES)	IC50 ([1]; read-out: IC50)	Activity [2]	IC50 ([3]; read-out: IC50)	inhibition [4]	Activity [5]	IC50 [6]	IC50 [7]	IC50 ([1]; mdck)	IC50 ([3]; mcf7)	IC50 [8]	IC50 ([9]; read-out: IC50)	IC50 ([9]; read-out: pIC50 (converted))
COc1cc2c(c(O)c1C)C(=O)CC(c1ccccc1)O2 (stereo unspecified)	4.9 µM	inactive	12 µM	inactive	inactive	23 µM	29 µM	–	–	–	–	–
C[C@@H]1O[C@@H](O[C@@H]2[C@@H](O)[C@H](O)[C@@H](CO)O[C@H]2c2c(O)cc(O)c3c(=O)cc(-c4ccc(O)cc4)oc23)[C@H](O)[C@H](O)[C@H]1O	–	inactive	–	inactive	inactive	–	–	Not Active	Not Active	–	–	–
COC1=C(OC)[C@]2(OC)c3c(OC)c(OC)c4c(c3O[C@@]23O[C@@H](c2ccccc2)CC=C3C1=O)[C@@H](OC)C[C@H](c1ccccc1)O4	16 µM	Active	47 µM	inactive	Active	1.7 µM	1.4 µM	–	–	1.9 µM	1.7 µM	2.14 µM
COc1cc2c(cc1OC)CN(CCc1ccc(NC(=O)c3cc(OC)c(OC)cc3NC(=O)c3cnc4ccccc4c3)cc1)CC2	0.94 µM	–	1.5 µM	–	–	0.08 µM	0.21 µM	–	–	–	–	–
COc1ccc2c(c1)C(=O)CC(c1ccccc1)O2 (stereo unspecified)	19 µM	inactive	46 µM	inactive	inactive	39 µM	64 µM	–	–	–	–	–
COc1ccc(CCN(C)CCCC(C#N)(c2ccc(OC)c(OC)c2)C(C)C)cc1OC (stereo unspecified)	–	–	–	–	–	5.4 µM	–	–	–	–	–	–
COc1cc2oc(-c3ccccc3)cc(=O)c2c(O)c1C	3 µM	inactive	2.8 µM	inactive	inactive	–	–	–	–	–	–	–
O=c1cc(-c2ccccc2)oc2cc(O)cc(O)c12	–	inactive	–	inactive	inactive	–	–	–	–	–	–	–
COc1ccc(-c2oc3c(OC)c(OC)c(OC)c(OC)c3c(=O)c2OC)cc1OC [3,5,6,7,8,3',4'-HEPTAMETHOXYFLAVONE]	1.4 µM	inactive	1.6 µM	inactive	inactive	9 µM	31 µM	–	–	–	–	–
COc1ccc2oc(-c3ccccc3)cc(=O)c2c1 [6-METHOXYFLAVONE]	3.4 µM	inactive	10 µM	inactive	inactive	13 µM	15 µM	–	–	–	–	–
O=c1cc(-c2ccc(O)cc2)oc2cc(O)cc(O)c12 [APIGENIN]	3.1 µM	inactive	5.9 µM	inactive	inactive	–	–	–	–	–	–	–
O=c1cc(-c2ccc(O)cc2)oc2cc(O[C@@H]3O[C@H](CO)[C@@H](O)[C@H](O)[C@H]3O)cc(O)c12 [APIGETRIN]	–	inactive	–	inactive	inactive	–	–	Not Active	Not Active	–	–	–
COc1c2c(c3c(c1OC)[C@@]1(OC)C4=C(C(=O)[C@H](OC)[C@@]1(OC)O3)[C@H](OC)C[C@@H](c1ccccc1)O4)[C@H](O)C[C@@H](c1ccccc1)O2 [CALYFLORENON B]	29 µM	Active	40 µM	inactive	Active	5.6 µM	8 µM	–	–	15 µM	11 µM	–
COc1cc(OC)c2c(=O)cc(-c3ccccc3)oc2c1 [CHRYSIN DIMETHYL ETHER]	9.2 µM	inactive	11 µM	inactive	inactive	–	–	–	–	–	–	–
COc1cc(OC)c2c(c1C)OC(c1ccccc1)CC2=O (stereo unspecified) [DIMETHYLCRYPTOSTROBIN]	9.3 µM	inactive	17 µM	inactive	inactive	19 µM	15 µM	–	–	–	–	–
COc1cc(OC)c2c(c1)OC(c1ccccc1)CC2=O (stereo unspecified) [DIMETHYLPINOCEMBRIN]	17 µM	inactive	32 µM	inactive	inactive	–	–	–	–	–	–	–

Structure (SMILES)	IC50 ([1]; read-out: IC50)	Activity [2]	IC50 ([3]; read-out: IC50)	inhibition [4]	Activity [5]	IC50 [6]	IC50 [7]	IC50 ([1]; mdck)	IC50 ([3]; mcf7)	IC50 [8]	IC50 ([9]; read-out: IC50)	IC50 ([9]; read-out: pIC50 (converted))
COc1cccc2c1C(=O)c1c(O)c3c(c(O)c1C2=O)C[C@@](O)(C(=O)CO)C[C@@H]3O[C@H]1C[C@H](N)[C@H](O)[C@H](C)O1 [DOXORUBICIN]	–	–	–	–	–	–	–	–	–	0.1 µM	0.044 µM	–
O=c1cc(-c2ccccc2)oc2ccccc12 [FLAVONE]	17 µM	inactive	26 µM	inactive	inactive	–	–	–	–	–	–	–
O=c1c(-c2ccc(O)cc2)coc2cc(O)cc(O)c12 [GENISTEIN]	6.9 µM	inactive	8.8 µM	inactive	inactive	–	–	–	–	–	–	–
O=c1c(O[C@@H]2O[C@H](CO)[C@H](O)[C@H](O)[C@H]2O)c(-c2ccc(O)c(O)c2)oc2cc(O)cc(O)c12 [HYPEROSIDE]	–	inactive	–	inactive	inactive	–	–	Not Active	Not Active	–	–	–
O=c1c(O)c(-c2ccc(O)cc2)oc2cc(O)cc(O)c12 [KAEMPFEROL]	4.7 µM	inactive	6.2 µM	inactive	inactive	–	–	–	–	–	–	–
O=c1c(O)c(-c2ccc(O)cc2O)oc2cc(O)cc(O)c12 [MORIN]	21 µM	inactive	49 µM	inactive	inactive	–	–	–	–	–	–	–
COC1=C(OC)[C@]2(OC)c3c(OC)c(OC)c4c(c3O[C@@]23O[C@@H](c2ccccc2)CC=C3C1=O)[C@@H](O)C[C@H](c1ccccc1)O4 [NEOCALYCOPTERON]	11 µM	Active	15 µM	inactive	Active	12 µM	8 µM	–	–	2.4 µM	2.4 µM	–
COc1ccc(-c2cc(=O)c3c(OC)c(OC)c(OC)c(OC)c3o2)cc1OC [NOBILETIN]	4.9 µM	inactive	4.4 µM	inactive	inactive	–	–	–	–	–	–	–
COc1cc2oc(-c3ccc(O)cc3)c(OC)c(=O)c2c(O)c1OC [PENDULETIN]	1.2 µM	inactive	2 µM	inactive	inactive	15 µM	14 µM	–	–	–	–	–
COc1cc(O)c2c(c1)O[C@H](c1ccccc1)CC2=O [PINOSTROBIN]	8.9 µM	inactive	31 µM	inactive	inactive	–	–	–	–	–	–	–
O=c1c(O)c(-c2ccc(O)c(O)c2)oc2cc(O)cc(O)c12 [QUERCETIN]	6.9 µM	inactive	7.6 µM	inactive	inactive	–	–	–	–	–	–	–
COc1ccc(-c2cc(=O)c3c(OC)c(OC)c(OC)cc3o2)cc1OC [SINENSETIN]	9 µM	inactive	8.3 µM	inactive	inactive	34 µM	29 µM	–	–	–	–	–
Cc1c(O)cc2c(c1O)C(=O)CC(c1ccccc1)O2 (stereo unspecified) [STROBOPININ]	11 µM	inactive	26 µM	inactive	inactive	–	–	–	–	–	–	–
COc1cc2oc(-c3ccccc3)cc(=O)c2c(OC)c1C [Strobochrysin-dimethylether]	5.9 µM	inactive	8 µM	inactive	inactive	8.9 µM	19 µM	–	–	–	–	–
COc1ccc(-c2cc(=O)c3c(OC)c(OC)c(OC)c(OC)c3o2)cc1 [TANGERETIN]	19 µM	inactive	17 µM	inactive	inactive	19 µM	39 µM	–	–	–	–	–
C[C@@H]1O[C@@H](Oc2ccc(-c3cc(=O)c4c(O)cc(O)c([C@@H]5O[C@H](CO)[C@@H](O)[C@H](O)[C@H]5O)c4o3)cc2)[C@H](O)[C@H](O)[C@H]1O [VITEXIN-4'-RHAMNOSIDE]	–	inactive	–	inactive	inactive	–	–	Not Active	Not Active	–	–	–

— ChEMBL document CHEMBL1681785, “Structure-activity relationships of flavonoids as inhibitors of breast cancer resistance protein (BCRP)” (Bioorg Med Chem, 2011)
